Data as given in ChEMBL document CHEMBL3217491, “Design, synthesis and biological evaluation of imidazopyridine/pyrimidine-chalcone derivatives as potential anticancer agents” (2010).
The source made the active and inactive calls. The calls are words filed in the database; no cut-off is given here.

Columns and labels:
MCF7 [1] = experiment: Cell cycle arrest in human MCF7 cells assessed as accumulation at G0/G1 phase at 4 uM after 24 hrs by propidium iodide staining-based flow cytometry (reference value: 64.04%); format: functional
TK-10 = experiment: Growth inhibition of human TK10 cells after 48 hrs by SRB assay; format: functional; settings: TK-10, 48 h
A498 = experiment: Growth inhibition of human A498 cells after 48 hrs by SRB assay; format: functional; settings: A498, 48 h
[2] = Growth inhibition of human HCC2998 cells after 48 hrs by SRB assay; format: functional; settings: HCC 2998, 48 h
HT-29 = experiment: Growth inhibition of human HT-29 cells after 48 hrs by SRB assay; format: functional; settings: HT-29, 48 h
786-0 = experiment: Growth inhibition of human 786-0 cells after 48 hrs by SRB assay; format: functional; settings: 786-0, 48 h
SN12C = experiment: Growth inhibition of human SN12C cells after 48 hrs by SRB assay; format: functional
[3] = Growth inhibition of human OVCAR8 cells after 48 hrs by SRB assay; format: functional; settings: OVCAR-8, 48 h
[4] = Growth inhibition of human OVCAR4 cells after 48 hrs by SRB assay; format: functional; settings: OVCAR-4, 48 h
SK-MEL-5 = experiment: Growth inhibition of human SK-MEL-5 cells after 48 hrs by SRB assay; format: functional; settings: SK-MEL-5, 48 h
T47D = experiment: Growth inhibition of human T47D cells after 48 hrs by SRB assay; format: functional
[5] = Growth inhibition of human OVCAR5 cells after 48 hrs by SRB assay; format: functional; settings: OVCAR-5, 48 h
SK-MEL-28 = experiment: Growth inhibition of human SK-MEL-28 cells after 48 hrs by SRB assay; format: functional; settings: SK-MEL-28, 48 h
K562 = experiment: Growth inhibition of human K562 cells after 48 hrs by SRB assay; format: functional; settings: K562, 48 h
U-251 = experiment: Growth inhibition of human U251 cells after 48 hrs by SRB assay; format: functional; settings: U-251, 48 h
[6] = Growth inhibition of human UACC257 cells after 48 hrs by SRB assay; format: functional; settings: UACC-257, 48 h
[7] = Growth inhibition of human HCT15 cells after 48 hrs by SRB assay; format: functional; settings: HCT-15, 48 h
ACHN = experiment: Growth inhibition of human ACHN cells after 48 hrs by SRB assay; format: functional
SR = experiment: Growth inhibition of human SR cells after 48 hrs by SRB assay; format: functional
[8] = Growth inhibition of human MOLT4 cells after 48 hrs by SRB assay; format: functional; settings: MOLT-4, 48 h
MDA-MB-231 = experiment: Growth inhibition of human MDA-MB-231 cells after 48 hrs by SRB assay; format: functional; settings: MDA-MB-231, 48 h
[9] = Growth inhibition of human EKVX cells after 48 hrs by SRB assay; format: functional
SNB-19 = experiment: Growth inhibition of human SNB19 cells after 48 hrs by SRB assay; format: functional; settings: SNB-19, 48 h
HCT-116 = experiment: Growth inhibition of human HCT116 cells after 48 hrs by SRB assay; format: functional; settings: HCT-116, 48 h
SNB-75 = experiment: Growth inhibition of human SNB75 cells after 48 hrs by SRB assay; format: functional; settings: SNB-75, 48 h
IGROV-1 = experiment: Growth inhibition of human IGROV1 cells after 48 hrs by SRB assay; format: functional; settings: IGROV-1, 48 h
[10] = Growth inhibition of human Hs578T cells after 48 hrs by SRB assay; format: functional; settings: Hs-578T
[11] = Growth inhibition of human LOXIMVI cells after 48 hrs by SRB assay; format: functional; settings: LOX IMVI
SK-OV-3 = experiment: Growth inhibition of human SKOV3 cells after 48 hrs by SRB assay; format: functional; settings: SK-OV-3, 48 h
COLO 205 = experiment: Growth inhibition of human COLO205 cells after 48 hrs by SRB assay; format: functional; settings: COLO 205, 48 h
[12] = Growth inhibition of human NCI-ADR-RES cells after 48 hrs by SRB assay; format: functional
KM12 = experiment: Growth inhibition of human KM12 cells after 48 hrs by SRB assay; format: functional; settings: KM12, 48 h
MCF7 [13] = experiment: Cell cycle arrest in human MCF7 cells assessed as accumulation at G2/M phase at 4 uM after 24 hrs by propidium iodide staining-based flow cytometry (reference value: 15.79%); format: functional
CCRF-CEM = experiment: Growth inhibition of human CCRF-CEM cells after 48 hrs by SRB assay; format: functional
[14] = Growth inhibition of human HOP92 cells after 48 hrs by SRB assay; format: functional; settings: HOP-92, 48 h
MCF7 [15] = experiment: Growth inhibition of human MCF7 cells after 48 hrs by SRB assay; format: functional; settings: MCF7, 48 h
SF-268 = experiment: Growth inhibition of human SF268 cells after 48 hrs by SRB assay; format: functional; settings: SF-268, 48 h
A549 = experiment: Growth inhibition of human A549 cells after 48 hrs by SRB assay; format: functional; settings: A549, 48 h
[16] = Growth inhibition of human UO31 cells after 48 hrs by SRB assay; format: functional; settings: UO-31, 48 h
M14 = experiment: Growth inhibition of human M14 cells after 48 hrs by SRB assay; format: functional; settings: M14, 48 h
[17] = Growth inhibition of human UACC62 cells after 48 hrs by SRB assay; format: functional; settings: UACC-62, 48 h
[18] = Growth inhibition of human BT549 cells after 48 hrs by SRB assay; format: functional; settings: BT-549, 48 h
HL-60(TB) = experiment: Growth inhibition of human HL-60(TB) cells after 48 hrs by SRB assay; format: functional; settings: HL-60, 48 h
DU-145 = experiment: Growth inhibition of human DU145 cells after 48 hrs by SRB assay; format: functional; settings: DU-145, 48 h
PC-3 = experiment: Growth inhibition of human PC3 cells after 48 hrs by SRB assay; format: functional; settings: PC-3, 48 h
SK-MEL-2 = experiment: Growth inhibition of human SK-MEL-2 cells after 48 hrs by SRB assay; format: functional; settings: SK-MEL-2, 48 h
MCF7 [19] = experiment: Growth inhibition of human MCF7 cells assessed as cell viability at 4 uM after 24 hrs by MTT assay; format: functional, cell-based
[20] = Growth inhibition of human OVCAR3 cells after 48 hrs by SRB assay; format: functional; settings: OVCAR-3, 48 h
NCI-H460 = experiment: Growth inhibition of human NCI-H460 cells after 48 hrs by SRB assay; format: functional; settings: NCI-H460, 48 h
NCI-H226 = experiment: Growth inhibition of human NCI-H226 cells after 48 hrs by SRB assay; format: functional; settings: NCI-H226, 48 h
[21] = Growth inhibition of human SF295 cells after 48 hrs by SRB assay; format: functional; settings: SF-295, 48 h
NCI-H23 = experiment: Growth inhibition of human NCI-H23 cells after 48 hrs by SRB assay; format: functional; settings: NCI-H23, 48 h
MCF7 [22] = experiment: Cell cycle arrest in human MCF7 cells assessed as accumulation at S phase at 4 uM after 24 hrs by propidium iodide staining-based flow cytometry (reference value: 20.17%); format: functional
NCI-H522 = experiment: Growth inhibition of human NCI-H522 cells after 48 hrs by SRB assay; format: functional; settings: NCI-H522, 48 h
MDA-MB-435 = experiment: Growth inhibition of human MDA-MB-435 cells after 48 hrs by SRB assay; format: functional; settings: MDA-MB-435, 48 h
[23] = Growth inhibition of human RXF393 cells after 48 hrs by SRB assay; format: functional; settings: RXF 393, 48 h
NCI-H322M = experiment: Growth inhibition of human NCI-H322M cells after 48 hrs by SRB assay; format: functional
[24] = Growth inhibition of human SF539 cells after 48 hrs by SRB assay; format: functional; settings: SF-539, 48 h
Malme-3M = experiment: Growth inhibition of human MALME-3M cells after 48 hrs by SRB assay; format: functional
HOP-62 = experiment: Growth inhibition of human HOP62 cells after 48 hrs by SRB assay; format: functional; settings: HOP-62, 48 h
MDA-MB-468 = experiment: Growth inhibition of human MDA-MB-468 cells after 48 hrs by SRB assay; format: functional; settings: MDA-MB-468, 48 h
SW-620 = experiment: Growth inhibition of human SW620 cells after 48 hrs by SRB assay; format: functional; settings: SW-620, 48 h
CAKI-1 = experiment: Growth inhibition of human Caki1 cells after 48 hrs by SRB assay; format: functional; settings: CAKI-1, 48 h
RPMI-8226 = experiment: Growth inhibition of human RPMI8226 cells after 48 hrs by SRB assay; format: functional; settings: RPMI-8226, 48 h

COc1cc(C(=O)/C=C/c2c(C(F)(F)F)nc3ccccn23)cc(OC)c1OC
Activity (MCF7 [1]): 95.24% | GI50 (TK-10): 2.09 µM | GI50 (A498): 2.4 µM | GI50 [2]: 1.83 µM | GI50 (HT-29): 1.93 µM | GI50 (786-0): 1.72 µM | GI50 (SN12C): 2.09 µM | GI50 [3]: 3.39 µM | GI50 [4]: 4.1 µM | GI50 (SK-MEL-5): 1.62 µM | GI50 (T47D): 3.52 µM | GI50 [5]: 1.98 µM | GI50 (SK-MEL-28): 1.93 µM | GI50 (K562): 2.83 µM | GI50 (U-251): 1.29 µM | GI50 [6]: 1.66 µM | GI50 [7]: 2.1 µM | GI50 (ACHN): 1.95 µM | GI50 (SR): 2.91 µM | GI50 [8]: 3.73 µM | GI50 (MDA-MB-231): 4.59 µM | GI50 [9]: 2.37 µM | GI50 (SNB-19): 1.93 µM | GI50 (HCT-116): 1.26 µM | GI50 (SNB-75): 1.76 µM | GI50 (IGROV-1): 2.23 µM | GI50 [10]: 3.27 µM | GI50 [11]: 1.66 µM | GI50 (SK-OV-3): 4.04 µM | GI50 (COLO 205): 2.11 µM | GI50 [12]: 1.41 µM | GI50 (KM12): 1.73 µM | Activity (MCF7 [13]): 0.66% | GI50 (CCRF-CEM): 4.15 µM | GI50 [14]: 2.65 µM | GI50 (MCF7 [15]): 1.44 µM | GI50 (SF-268): 1.64 µM | GI50 (A549): 4.04 µM | GI50 [16]: 1.49 µM | GI50 (M14): 1.82 µM | GI50 [17]: 2.05 µM | GI50 [18]: 1.64 µM | GI50 (HL-60(TB)): 4.12 µM | GI50 (DU-145): 1.61 µM | GI50 (PC-3): 3.8 µM | GI50 (SK-MEL-2): 2.43 µM | inhibition (MCF7 [19]): Active | GI50 [20]: 1.83 µM | GI50 (NCI-H460): 2.01 µM | GI50 (NCI-H226): 3.55 µM | GI50 [21]: 1.99 µM | GI50 (NCI-H23): 1.51 µM | Activity (MCF7 [22]): 4.1% | GI50 (NCI-H522): 1.77 µM | GI50 (MDA-MB-435): 2.26 µM | GI50 [23]: 1.87 µM | GI50 (NCI-H322M): 1.66 µM | GI50 [24]: 1.63 µM | GI50 (Malme-3M): 1.57 µM | GI50 (HOP-62): 2.97 µM | GI50 (MDA-MB-468): 2.12 µM | GI50 (SW-620): 1.68 µM | GI50 (CAKI-1): 1.82 µM | GI50 (RPMI-8226): 1.98 µM
